Values quoted from earlier work, collected in patent US20240265995A1, “System of Predicting Sensitivity of Klebsiella against Cefoxitin and Method” (priority 2023, published 2024).

Test system: carbapenem resistant Klebsiella pneumoniae
Settings: carbapenem resistant Klebsiella pneumoniae isolated from 2014 to 2017 (252/403)

Compound: C[C@@H](O)[C@H]1C(=O)N2C(C(=O)O)=C(S[C@@H]3CN[C@H](C(=O)N(C)C)C3)[C@H](C)[C@H]12 [meropenem]
- resistance rate against meropenem: 62.5%
